What was measured:
SW620 [1] = test: EC50 for viability (resazurin, 96 h); details: RPMI+GlutaMAX (10% FBS, 1% P/S)
HCT116 = test: EC50 for viability (resazurin, 96 h); details: RPMI+GlutaMAX (10% FBS, 1% P/S)
SW620 [2] = test: cell viability relative to lowest-dose well (resazurin, 96 h); higher = more viable; details: RPMI + 10% FBS
Outline: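 HCT116 (500 cells/well) or SW620 (1,000 cells/well) cells were seeded in 50 µl RPMI with 10% FBS plus a metabolite supplement in 384-well plates. Compounds were dispensed from 10 mM DMSO stocks as dilution series, and plates were incubated 96 h at 37 °C, 5% CO2. Viability was read as resazurin (10 µg ml^−1) conversion to resorufin after 5 h, by fluorescence at 595 nm. Values are percent of the lowest-dose well, with independent replicate cultures. Viability was read by resazurin-to-resorufin conversion and normalised to the lowest-dose vehicle well (=100%).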

O=c1[nH]cc(F)c(=O)[nH]1 [5-fluorouracil]
EC50 for viability [µM]
Details	metabolite supplement: Folic acid	metabolite supplement: Folinic acid	metabolite supplement: Hypoxanthine	metabolite supplement: Thymidine	metabolite supplement: Thymidine + Folic acid	metabolite supplement: Thymidine + Folinic acid	metabolite supplement: Thymidine + Hypoxanthine	metabolite supplement: Vehicle
HCT116	–	–	3.08	2.22	–	–	3.29	–
SW620 [1]	4.72	4.28	7.63	4.39	4.5	4.32	7.42	5.04

cell viability [%], SW620 [2]
Details	metabolite supplement: 50uM thymidine	metabolite supplement: 50uM thymidine + 250uM hypoxanthine	metabolite supplement: 250uM hypoxanthine	metabolite supplement: vehicle
0.0001 M	6.17	8.1	8.23	7.07
0.001 µM	100	100	100	100
0.01 µM	103	99.7	103	104
0.0278 µM	99.6	99.4	102	101
0.0774 µM	97.9	101	98	102
0.215 µM	94.8	99.9	99.2	100
0.599 µM	93.3	97.1	101	99.9
1.67 µM	77.5	87.9	92	84.1
4.64 µM	52.2	65.6	66.7	56.8
12.9 µM	26.5	37	38.5	30.8
35.9 µM	11.9	16	16.8	13.2

Cc1[nH]nc2c1C(c1cc(CO)cc(-c3ccccc3)c1)(C(C)C)C(C#N)=C(N)O2 (stereo unspecified) [SHIN1]
SW620 [1]
Details	EC50 for viability [µM]
metabolite supplement: Hypoxanthine	> 10
metabolite supplement: Sodium Formate	> 10
metabolite supplement: Thymidine	1.88
metabolite supplement: Thymidine + Hypoxanthine	> 10
metabolite supplement: Thymidine + Sodium Formate	> 10

cell viability [%], SW620 [2]
Details	metabolite supplement: 1mM sodium formate	metabolite supplement: 50uM thymidine	metabolite supplement: 50uM thymidine + 1mM sodium formate	metabolite supplement: 50uM thymidine + 250uM hypoxanthine	metabolite supplement: 250uM hypoxanthine	metabolite supplement: vehicle
0.001 µM	100	100	100	100	100	100
0.01 µM	99.57	98.9	102	103	102	100
0.0233 µM	98.7	99.2	102	103	96.7	95
0.0541 µM	98.5	102	104	103	101	98.63
0.126 µM	97.4	102	104	103	101	97.1
0.293 µM	96.93	99.6	101	105	98.8	95
0.682 µM	95.3	96	103	104	98.8	88.6
1.59 µM	94.8	85.5	100	108	98.8	82.9
3.69 µM	92.3	75	98.1	104	96.4	72.3
8.6 µM	89.6	69.3	95.2	102	93.9	68
20 µM	78.2	66.5	83.8	90.8	84.8	66
